Reference: patent US12116343B2, “Inhibitors of APOL1 and methods of using same” (Vertex Pharmaceuticals Incorporated, priority 2020, dated 2024)

molecular target: T1, G1 APOL1 (Homo sapiens, UniProt O14791, I384M/S342G); test: Acute APOL1 Thallium Assay with inducible stable clones of HEK 293 cells; format: cell-based; conditions: HEK 293 T-Rex cells expressing G1 APOL1; read-out: Thallium Assay (IC50)
T1 construct: expressed in transfected cells
T1 sequence (O14791 28-398 S342G/I384M): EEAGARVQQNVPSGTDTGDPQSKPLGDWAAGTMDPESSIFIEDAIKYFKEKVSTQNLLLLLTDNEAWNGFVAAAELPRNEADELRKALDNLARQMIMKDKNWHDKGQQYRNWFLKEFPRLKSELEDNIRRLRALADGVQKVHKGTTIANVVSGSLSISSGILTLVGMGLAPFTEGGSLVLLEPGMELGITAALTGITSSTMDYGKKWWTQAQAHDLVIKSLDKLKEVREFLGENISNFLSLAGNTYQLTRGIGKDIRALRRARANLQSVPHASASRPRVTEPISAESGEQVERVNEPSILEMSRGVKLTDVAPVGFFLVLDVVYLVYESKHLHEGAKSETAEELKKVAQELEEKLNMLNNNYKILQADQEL
In short: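 Tetracycline-inducible HEK293 T-Rex clone G1 DC3.25 expressing G1 APOL1, plated at 26000 cells/well in Opti-MEM with tetracycline induction. APOL1 pore activity read on FLIPR as fluorescence increase from Tl+ influx into cells loaded with a Tl+-sensitive AM-ester dye.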

IC50 | SMILES
> 1000 nM | NC(=O)[C@@H]1CCN(C(=O)[C@H]2C[C@H](c3c(-c4ccc(F)cc4)[nH]c4c(F)cc(F)cc43)C2)C1 [Compound 135]
> 1000 nM | O=C([C@H]1C[C@H](c2c(-c3ccc(F)cc3)[nH]c3c(F)cc(F)cc32)C1)N1CCOC(CO)C1 (stereo partly drawn) [Compound 148]
> 1000 nM | CCN(C(=O)[C@H]1C[C@H](c2c(-c3ccc(F)cc3)[nH]c3c(F)cc(F)cc32)C1)C(C)CO (mixture of isomers) [Compound 111]
> 1000 nM | O=C([C@H]1C[C@H](c2c(-c3ccc(F)cc3)[nH]c3c(F)cc(F)cc32)C1)N(CCOCCO)C1CCC1 [Compound 121]
> 1000 nM | C[C@H]1CN(C(=O)[C@H]2C[C@H](c3c(-c4ccc(F)cc4)[nH]c4c(F)cc(F)cc43)C2)CC[C@@H]1O [Compound 116]
> 1000 nM | O=C([C@H]1C[C@H](c2c(-c3ccc(F)cc3)[nH]c3c(F)cc(F)cc32)C1)N1CCC2(COC2)C1 [Compound 103]
> 1000 nM | CN(CC(O)CO)C(=O)[C@H]1C[C@H](c2c(-c3ccc(F)cc3)[nH]c3c(F)cc(F)cc32)C1 (stereo partly drawn) [Compound 158]
> 1000 nM | O=C([C@H]1C[C@H](c2c(-c3ccc(F)cc3)[nH]c3c(F)cc(F)cc32)C1)N1C2CCC(C2)C1CO (stereo partly drawn) [Compound 97]
250 to 1000 nM | C[C@@H](O)[C@@H](CO)NC(=O)[C@H]1C[C@H](c2c(-c3ccc(F)cc3)[nH]c3c(F)cc(F)cc32)C1 [Compound 160]
> 1000 nM | O=C([C@H]1C[C@H](c2c(-c3ccc(F)cc3)[nH]c3c(F)cc(F)cc32)C1)N1CCOCC1CCO (stereo partly drawn) [Compound 113]
> 1000 nM | O=C([C@H]1C[C@H](c2c(-c3ccc(F)cc3)[nH]c3c(F)cc(F)cc32)C1)N(CCO)c1cnccn1 [Compound 132]
> 1000 nM | CC(C)N(CCO)C(=O)[C@H]1C[C@H](c2c(-c3ccc(F)cc3)[nH]c3c(F)cc(F)cc32)C1 [Compound 123]
250 to 1000 nM | CC(O)CNC(=O)[C@H]1C[C@H](c2c(-c3ccc(F)cc3)[nH]c3c(F)cc(F)cc32)C1 (stereo partly drawn) [Compound 167]
< 250 nM | O=C1C[C@@H](NC(=O)[C@H]2C[C@H](c3c(-c4ccc(F)cc4)[nH]c4c(F)cc(F)cc43)C2)C(=O)N1 [Compound 166]
250 to 1000 nM | O=C([C@H]1C[C@H](c2c(-c3ccc(F)cc3)[nH]c3c(F)cc(F)cc32)C1)N1CCOC(O)C1 (stereo partly drawn) [Compound 115]
250 to 1000 nM | O=C([C@H]1C[C@H](c2c(-c3ccc(F)cc3)[nH]c3c(F)cc(F)cc32)C1)N1CCC[C@@H](O)C1 [Compound 149]
> 1000 nM | O=C([C@H]1C[C@H](c2c(-c3ccc(F)cc3)[nH]c3c(F)cc(F)cc32)C1)N1CC2(CC(O)C2)C1 [Compound 137]
> 1000 nM | CN(C)C[C@@H]1CCN(C(=O)[C@H]2C[C@H](c3c(-c4ccc(F)cc4)[nH]c4c(F)cc(F)cc43)C2)C[C@H]1O [Compound 110]
250 to 1000 nM | O=C(NC1CC(O)C1)[C@H]1C[C@H](c2c(-c3ccc(F)cc3)[nH]c3c(F)cc(F)cc32)C1 (stereo partly drawn) [Compound 5]
250 to 1000 nM | C[C@H](CO)N(C)C(=O)[C@H]1C[C@H](c2c(-c3ccc(F)cc3)[nH]c3c(F)cc(F)cc32)C1 [Compound 142]

IC50 | SMILES
> 1000 nM | O=C([C@H]1C[C@H](c2c(-c3ccc(F)cc3)[nH]c3c(F)cc(F)cc32)C1)N1CC(OCC2CCCO2)C1 (stereo partly drawn) [Compound 136]
250 to 1000 nM | NC(=O)[C@H]1CCCN1C(=O)[C@H]1C[C@H](c2c(-c3ccc(F)cc3)[nH]c3c(F)cc(F)cc32)C1 [Compound 153]
> 1000 nM | O=C([C@H]1C[C@H](c2c(-c3ccc(F)cc3)[nH]c3c(F)cc(F)cc32)C1)N1CCCCC1CO (stereo partly drawn) [Compound 145]
> 1000 nM | O=C([C@H]1C[C@H](c2c(-c3ccc(F)cc3)[nH]c3c(F)cc(F)cc32)C1)N(CCO)CCCO [Compound 117]
> 1000 nM | O=C([C@H]1C[C@H](c2c(-c3ccc(F)cc3)[nH]c3c(F)cc(F)cc32)C1)N1C[C@H]2C[C@@]2(CO)C1 [Compound 98]
250 to 1000 nM | CCN(CCO)C(=O)[C@H]1C[C@H](c2c(-c3ccc(F)cc3)[nH]c3c(F)cc(F)cc32)C1 [Compound 124]
> 1000 nM | O=C([C@H]1C[C@H](c2c(-c3ccc(F)cc3)[nH]c3c(F)cc(F)cc32)C1)N1CCC(CO)(CO)CC1 [Compound 108]
250 to 1000 nM | CC(O)CN(CCO)C(=O)[C@H]1C[C@H](c2c(-c3ccc(F)cc3)[nH]c3c(F)cc(F)cc32)C1 (mixture of isomers) [Compound 129]
> 1000 nM | CC(O)C1CCCN(C(=O)[C@H]2C[C@H](c3c(-c4ccc(F)cc4)[nH]c4c(F)cc(F)cc43)C2)C1 (stereo partly drawn) [Compound 131]
> 1000 nM | O=C(NCC1(O)CCC1)[C@H]1C[C@H](c2c(-c3ccc(F)cc3)[nH]c3c(F)cc(F)cc32)C1 [Compound 143]
> 1000 nM | NC(=O)C1CCN(C(=O)[C@H]2C[C@H](c3c(-c4ccc(F)cc4)[nH]c4c(F)cc(F)cc43)C2)CC1 [Compound 133]
250 to 1000 nM | NC(=O)[C@H]1C[C@H](c2c(-c3ccc(F)cc3)[nH]c3c(F)cc(F)cc32)C1 [Compound 169]
> 1000 nM | O=C([C@H]1C[C@H](c2c(-c3ccc(F)cc3)[nH]c3c(F)cc(F)cc32)C1)N1CCCC[C@@H]1CO [Compound 107]
> 1000 nM | CC(C)[C@@H](CO)NC(=O)[C@H]1C[C@H](c2c(-c3ccc(F)cc3)[nH]c3c(F)cc(F)cc32)C1 [Compound 141]
> 1000 nM | NC(=O)[C@H]1CCN(C(=O)[C@H]2C[C@H](c3c(-c4ccc(F)cc4)[nH]c4c(F)cc(F)cc43)C2)C1 [Compound 154]
250 to 1000 nM | CC(C)(NC(=O)[C@H]1C[C@H](c2c(-c3ccc(F)cc3)[nH]c3c(F)cc(F)cc32)C1)C(N)=O [Compound 11]
> 1000 nM | C[C@@H](O)[C@H](CO)NC(=O)[C@H]1C[C@H](c2c(-c3ccc(F)cc3)[nH]c3c(F)cc(F)cc32)C1 [Compound 155]
> 1000 nM | O=C1CC[C@@H](NC(=O)[C@H]2C[C@H](c3c(-c4ccc(F)cc4)[nH]c4c(F)cc(F)cc43)C2)C1 [Compound 157]
> 1000 nM | O=C([C@H]1C[C@H](c2c(-c3ccc(F)cc3)[nH]c3c(F)cc(F)cc32)C1)N1C[C@@H]2[C@@H](CO)[C@@H]2C1 [Compound 99]
> 1000 nM | O=C([C@H]1C[C@H](c2c(-c3ccc(F)cc3)[nH]c3c(F)cc(F)cc32)C1)N1CCCC(O)C1 (stereo partly drawn) [Compound 150]

IC50 | SMILES
250 to 1000 nM | O=C(NCc1cnco1)[C@H]1C[C@H](c2c(-c3ccc(F)cc3)[nH]c3c(F)cc(F)cc32)C1 [Compound 170]
> 1000 nM | O=C([C@H]1C[C@H](c2c(-c3ccc(F)cc3)[nH]c3c(F)cc(F)cc32)C1)N1CC(n2cccn2)C1 [Compound 96]
250 to 1000 nM | O=C1CC[C@H](NC(=O)[C@H]2C[C@H](c3c(-c4ccc(F)cc4)[nH]c4c(F)cc(F)cc43)C2)C1 [Compound 139]
> 1000 nM | O=C([C@H]1C[C@H](c2c(-c3ccc(F)cc3)[nH]c3c(F)cc(F)cc32)C1)N1CCCC[C@H]1CO [Compound 146]
> 1000 nM | CCC1(O)CN(C(=O)[C@H]2C[C@H](c3c(-c4ccc(F)cc4)[nH]c4c(F)cc(F)cc43)C2)C1 [Compound 112]
> 1000 nM | O=C([C@H]1C[C@H](c2c(-c3ccc(F)cc3)[nH]c3c(F)cc(F)cc32)C1)N1CC[C@H](CO)[C@H](O)C1 [Compound 100]
> 1000 nM | O=C([C@H]1C[C@H](c2c(-c3ccc(F)cc3)[nH]c3c(F)cc(F)cc32)C1)N1CCCC1CCO (stereo partly drawn) [Compound 101]
< 250 nM | O=C(NCCOCCO)[C@H]1C[C@H](c2c(-c3ccc(F)cc3)[nH]c3c(F)cc(F)cc32)C1 [Compound 125]
250 to 1000 nM | O=C(N[C@H](CO)C(F)(F)F)[C@H]1C[C@H](c2c(-c3ccc(F)cc3)[nH]c3c(F)cc(F)cc32)C1 [Compound 164]
> 1000 nM | O=C([C@H]1C[C@H](c2c(-c3ccc(F)cc3)[nH]c3c(F)cc(F)cc32)C1)N1CC[C@H](CO)C1 [Compound 140]
> 1000 nM | O=C([C@H]1C[C@H](c2c(-c3ccc(F)cc3)[nH]c3c(F)cc(F)cc32)C1)N1CC(O)C(N2CCOCC2)C1 (stereo partly drawn) [Compound 106]
> 1000 nM | CC1(C)CN(C(=O)[C@H]2C[C@H](c3c(-c4ccc(F)cc4)[nH]c4c(F)cc(F)cc43)C2)CCC1O (stereo partly drawn) [Compound 114]
> 1000 nM | O=C([C@H]1C[C@H](c2c(-c3ccc(F)cc3)[nH]c3c(F)cc(F)cc32)C1)N1CCN[C@H](CO)C1 [Compound 161]
> 1000 nM | O=C([C@H]1C[C@H](c2c(-c3ccc(F)cc3)[nH]c3c(F)cc(F)cc32)C1)N1CCC[C@H](O)C1 [Compound 105]
> 1000 nM | CN(CC1(CO)CCOCC1)C(=O)[C@H]1C[C@H](c2c(-c3ccc(F)cc3)[nH]c3c(F)cc(F)cc32)C1 [Compound 120]
250 to 1000 nM | O=C(N[C@@H](CO)C(F)(F)F)[C@H]1C[C@H](c2c(-c3ccc(F)cc3)[nH]c3c(F)cc(F)cc32)C1 [Compound 163]
250 to 1000 nM | O=C(NCc1cocn1)[C@H]1C[C@H](c2c(-c3ccc(F)cc3)[nH]c3c(F)cc(F)cc32)C1 [Compound 168]
250 to 1000 nM | NC(=O)[C@H](CO)NC(=O)[C@H]1C[C@H](c2c(-c3ccc(F)cc3)[nH]c3c(F)cc(F)cc32)C1 [Compound 144]
> 1000 nM | CO[C@H]1CCN(C(=O)[C@H]2C[C@H](c3c(-c4ccc(F)cc4)[nH]c4c(F)cc(F)cc43)C2)C1 [Compound 95]
250 to 1000 nM | O=C(NCCCO)[C@H]1C[C@H](c2c(-c3ccc(F)cc3)[nH]c3c(F)cc(F)cc32)C1 [Compound 104]
